According to US7118895B2, “Process for producing aglycon by using diglycosidase and flavor-improved food containing the aglycon and converting agent to be used in the process” (Amano Enzyme Inc., priority 2000, dated 2006):

Legend:
[1] = system: Diglycosidase derived from P. multicolor; test: Reactivity toward various isoflavone glycosides (HPLC); type: biochemical, Penicillium multicolor; design: glucoside / aglycon: unit not given here; conditions: for aglycon / glucoside: 55 °C, pH 4.0
Experimental: Diglycosidase was diluted with an acetate buffer of pH 4.0 to prepare a 0.75 AU/mL enzyme solution. As references, a similar operation was conducted using β-glucosidase (manufactured by Fluka) derived from Aspergillus niger, β-glucosidase (manufactured by Sigma) derived from almond, β-xylosidase derived from pectinase G (manufactured by Amano Enzyme Inc.). Each of purified products of isoflavone glycosides (glycitin, acetylglycitin, malonylglycitin, daidzin, acetyldaidzin, malonyldaidzin, genistin, acetylgenistin, malonylgenistin, all manufactured by Nacalai Tesque, Inc.) was dissolved in methanol to prepare each 2 mM substrate solution. The reaction was carried out by mixing 10 μL of a substrate solution, 200 μL of 20 mM acetate buffer (pH 4.0), and 40 μL of each purified enzyme solution at a total liquid volume of 250 μL. The reaction was carried out at 55° C. and isolation of an aglycon isoflavone from an isoflavone glycoside in the reaction mixture was detected by HLPC at 0, 1, 3, and 6 hours of the reaction.
To the reaction mixture was added 700 μL of ethanol, followed by stirring and ultrasonication. After centrifugation at 15,000 rpm and 4° C. for 10 minutes, the supernatant was filtered through a filter and then the filtrate was applied to HPLC.
The isoflavone glycoside and aglycon isoflavone contained in the filtrate was separated and detected by a high performance liquid chromatography (HPLC, Shimadzu CLASS LC-10 system) using TOSOH TSK gel ODS-80TM column (manufactured by Tosoh Corporation). […] The absorbance at 260 nm was detected by a UV detector (Shimadzu, SPD-10AV). Using purified products (manufactured by Nacalai Tesque, Inc.) of the above isoflavone glycosides and aglycon isoflavones, the isoflavone glycoside and aglycon isoflavone were quantitatively determined according to a calibration curve method. By the way, unless otherwise stated, the measuring conditions of HPLC herein mean those described in the example.

Crude diglycosidase = test: Examination of substrate concentration in the conversion into isoflavone aglycons by diglycosidase using soybean materials; type: biochemical, Penicillium multicolor IAM7153;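 note: percent of the isoflavone family total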
Method in brief: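 Soybean materials (roasted soy flour, soymilk, defatted soybean, concentrated soy protein) at 2–30% (w/v) in 20 mM acetate pH 4.0 were reacted with crude diglycosidase at 55° C with shaking; enzyme solution added was 1.88 AU/mL. Samples taken at 0, 1, 3 and 6 h were ethanol-extracted and analyzed by HPLC.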

## O=c1c(-c2ccc(O)cc2)coc2cc(O[C@@H]3O[C@H](CO)[C@@H](O)[C@H](O)[C@H]3O)cc(O)c12 [genistin]
[1]; Reaction time 0 h
  aglycon: 0
  glucoside: 100
[1]; Reaction time 1 h
  aglycon: 0
  glucoside: 100
[1]; Reaction time 3 h
  aglycon: 0
  glucoside: 100
[1]; Reaction time 6 h
  aglycon: 0
  glucoside: 100
[1]; combined use of β-glucosidase in addition to the enzyme
  efficiency of decomposing by diglycosidase with combined use of β-glucosidase: further enhanced
Crude diglycosidase; concentrated soybean protein, substrate concentration 2%, heat treatment of enzyme no, reaction time 0 h
  Decomposition efficiency: ratio of each glycoside/aglycon within its isoflavone family: 50.5%
Crude diglycosidase; concentrated soybean protein, substrate concentration 2%, heat treatment of enzyme no, reaction time 1 h
  Decomposition efficiency: ratio of each glycoside/aglycon within its isoflavone family: 1.2%
Crude diglycosidase; concentrated soybean protein, substrate concentration 2%, heat treatment of enzyme no, reaction time 3 h
  Decomposition efficiency: ratio of each glycoside/aglycon within its isoflavone family: not detected
Crude diglycosidase; concentrated soybean protein, substrate concentration 2%, heat treatment of enzyme no, reaction time 6 h
  Decomposition efficiency: ratio of each glycoside/aglycon within its isoflavone family: not detected
Crude diglycosidase; concentrated soybean protein, substrate concentration 2%, heat treatment of enzyme yes, reaction time 6 h
  Decomposition efficiency: ratio of each glycoside/aglycon within its isoflavone family: 51.6%
Crude diglycosidase; concentrated soybean protein, substrate concentration 5%, heat treatment of enzyme no, reaction time 0 h
  Decomposition efficiency: ratio of each glycoside/aglycon within its isoflavone family: 51.2%
Crude diglycosidase; concentrated soybean protein, substrate concentration 5%, heat treatment of enzyme no, reaction time 1 h
  Decomposition efficiency: ratio of each glycoside/aglycon within its isoflavone family: not detected
Crude diglycosidase; concentrated soybean protein, substrate concentration 5%, heat treatment of enzyme no, reaction time 3 h
  Decomposition efficiency: ratio of each glycoside/aglycon within its isoflavone family: not detected
Crude diglycosidase; concentrated soybean protein, substrate concentration 5%, heat treatment of enzyme no, reaction time 6 h
  Decomposition efficiency: ratio of each glycoside/aglycon within its isoflavone family: not detected
Crude diglycosidase; concentrated soybean protein, substrate concentration 5%, heat treatment of enzyme yes, reaction time 6 h
  Decomposition efficiency: ratio of each glycoside/aglycon within its isoflavone family: 52.2%
Crude diglycosidase; concentrated soybean protein, substrate concentration 10%, heat treatment of enzyme no, reaction time 0 h
  Decomposition efficiency: ratio of each glycoside/aglycon within its isoflavone family: 50.6%
Crude diglycosidase; concentrated soybean protein, substrate concentration 10%, heat treatment of enzyme no, reaction time 1 h
  Decomposition efficiency: ratio of each glycoside/aglycon within its isoflavone family: 1.3%
Crude diglycosidase; concentrated soybean protein, substrate concentration 10%, heat treatment of enzyme no, reaction time 3 h
  Decomposition efficiency: ratio of each glycoside/aglycon within its isoflavone family: not detected
Crude diglycosidase; concentrated soybean protein, substrate concentration 10%, heat treatment of enzyme no, reaction time 6 h
  Decomposition efficiency: ratio of each glycoside/aglycon within its isoflavone family: not detected
Crude diglycosidase; concentrated soybean protein, substrate concentration 10%, heat treatment of enzyme yes, reaction time 6 h
  Decomposition efficiency: ratio of each glycoside/aglycon within its isoflavone family: 50.9%
Crude diglycosidase; concentrated soybean protein, substrate concentration 20%, heat treatment of enzyme no, reaction time 0 h
  Decomposition efficiency: ratio of each glycoside/aglycon within its isoflavone family: 50.4%
Crude diglycosidase; concentrated soybean protein, substrate concentration 20%, heat treatment of enzyme no, reaction time 1 h
  Decomposition efficiency: ratio of each glycoside/aglycon within its isoflavone family: 6.0%
Crude diglycosidase; concentrated soybean protein, substrate concentration 20%, heat treatment of enzyme no, reaction time 3 h
  Decomposition efficiency: ratio of each glycoside/aglycon within its isoflavone family: not detected
Crude diglycosidase; concentrated soybean protein, substrate concentration 20%, heat treatment of enzyme no, reaction time 6 h
  Decomposition efficiency: ratio of each glycoside/aglycon within its isoflavone family: not detected
Crude diglycosidase; concentrated soybean protein, substrate concentration 20%, heat treatment of enzyme yes, reaction time 6 h
  Decomposition efficiency: ratio of each glycoside/aglycon within its isoflavone family: 50.8%
Crude diglycosidase; concentrated soybean protein, substrate concentration 30%, heat treatment of enzyme no, reaction time 0 h
  Decomposition efficiency: ratio of each glycoside/aglycon within its isoflavone family: 54.6%
Crude diglycosidase; concentrated soybean protein, substrate concentration 30%, heat treatment of enzyme no, reaction time 1 h
  Decomposition efficiency: ratio of each glycoside/aglycon within its isoflavone family: 2.8%
Crude diglycosidase; concentrated soybean protein, substrate concentration 30%, heat treatment of enzyme no, reaction time 3 h
  Decomposition efficiency: ratio of each glycoside/aglycon within its isoflavone family: not detected
Crude diglycosidase; concentrated soybean protein, substrate concentration 30%, heat treatment of enzyme no, reaction time 6 h
  Decomposition efficiency: ratio of each glycoside/aglycon within its isoflavone family: not detected
Crude diglycosidase; concentrated soybean protein, substrate concentration 30%, heat treatment of enzyme yes, reaction time 6 h
  Decomposition efficiency: ratio of each glycoside/aglycon within its isoflavone family: 55.6%
Crude diglycosidase; roasted soy flour, substrate concentration 2%, heat treatment of enzyme no, reaction time 0 h
  Decomposition efficiency: ratio of each glycoside/aglycon within its isoflavone family: 33.2%
Crude diglycosidase; roasted soy flour, substrate concentration 2%, heat treatment of enzyme no, reaction time 1 h
  Decomposition efficiency: ratio of each glycoside/aglycon within its isoflavone family: not detected
Crude diglycosidase; roasted soy flour, substrate concentration 2%, heat treatment of enzyme no, reaction time 3 h
  Decomposition efficiency: ratio of each glycoside/aglycon within its isoflavone family: not detected
Crude diglycosidase; roasted soy flour, substrate concentration 2%, heat treatment of enzyme no, reaction time 6 h
  Decomposition efficiency: ratio of each glycoside/aglycon within its isoflavone family: not detected
Crude diglycosidase; roasted soy flour, substrate concentration 2%, heat treatment of enzyme yes, reaction time 6 h
  Decomposition efficiency: ratio of each glycoside/aglycon within its isoflavone family: 48.4%
Crude diglycosidase; roasted soy flour, substrate concentration 5%, heat treatment of enzyme no, reaction time 0 h
  Decomposition efficiency: ratio of each glycoside/aglycon within its isoflavone family: 47.8%
Crude diglycosidase; roasted soy flour, substrate concentration 5%, heat treatment of enzyme no, reaction time 1 h
  Decomposition efficiency: ratio of each glycoside/aglycon within its isoflavone family: not detected
Crude diglycosidase; roasted soy flour, substrate concentration 5%, heat treatment of enzyme no, reaction time 3 h
  Decomposition efficiency: ratio of each glycoside/aglycon within its isoflavone family: not detected
Crude diglycosidase; roasted soy flour, substrate concentration 5%, heat treatment of enzyme no, reaction time 6 h
  Decomposition efficiency: ratio of each glycoside/aglycon within its isoflavone family: not detected
Crude diglycosidase; roasted soy flour, substrate concentration 5%, heat treatment of enzyme yes, reaction time 6 h
  Decomposition efficiency: ratio of each glycoside/aglycon within its isoflavone family: 47.8%
Crude diglycosidase; roasted soy flour, substrate concentration 10%, heat treatment of enzyme no, reaction time 0 h
  Decomposition efficiency: ratio of each glycoside/aglycon within its isoflavone family: 59.5%
Crude diglycosidase; roasted soy flour, substrate concentration 10%, heat treatment of enzyme no, reaction time 1 h
  Decomposition efficiency: ratio of each glycoside/aglycon within its isoflavone family: not detected
Crude diglycosidase; roasted soy flour, substrate concentration 10%, heat treatment of enzyme no, reaction time 3 h
  Decomposition efficiency: ratio of each glycoside/aglycon within its isoflavone family: not detected
Crude diglycosidase; roasted soy flour, substrate concentration 10%, heat treatment of enzyme no, reaction time 6 h
  Decomposition efficiency: ratio of each glycoside/aglycon within its isoflavone family: not detected
Crude diglycosidase; roasted soy flour, substrate concentration 10%, heat treatment of enzyme yes, reaction time 6 h
  Decomposition efficiency: ratio of each glycoside/aglycon within its isoflavone family: 49.5%
Crude diglycosidase; roasted soy flour, substrate concentration 20%, heat treatment of enzyme no, reaction time 0 h
  Decomposition efficiency: ratio of each glycoside/aglycon within its isoflavone family: 50.5%
Crude diglycosidase; roasted soy flour, substrate concentration 20%, heat treatment of enzyme no, reaction time 1 h
  Decomposition efficiency: ratio of each glycoside/aglycon within its isoflavone family: not detected
Crude diglycosidase; roasted soy flour, substrate concentration 20%, heat treatment of enzyme no, reaction time 3 h
  Decomposition efficiency: ratio of each glycoside/aglycon within its isoflavone family: not detected
Crude diglycosidase; roasted soy flour, substrate concentration 20%, heat treatment of enzyme no, reaction time 6 h
  Decomposition efficiency: ratio of each glycoside/aglycon within its isoflavone family: not detected
Crude diglycosidase; roasted soy flour, substrate concentration 20%, heat treatment of enzyme yes, reaction time 6 h
  Decomposition efficiency: ratio of each glycoside/aglycon within its isoflavone family: 49.5%
Crude diglycosidase; roasted soy flour, substrate concentration 30%, heat treatment of enzyme no, reaction time 0 h
  Decomposition efficiency: ratio of each glycoside/aglycon within its isoflavone family: 49.4%
Crude diglycosidase; roasted soy flour, substrate concentration 30%, heat treatment of enzyme no, reaction time 1 h
  Decomposition efficiency: ratio of each glycoside/aglycon within its isoflavone family: 5.7%
Crude diglycosidase; roasted soy flour, substrate concentration 30%, heat treatment of enzyme no, reaction time 3 h
  Decomposition efficiency: ratio of each glycoside/aglycon within its isoflavone family: 9.6%
Crude diglycosidase; roasted soy flour, substrate concentration 30%, heat treatment of enzyme no, reaction time 6 h
  Decomposition efficiency: ratio of each glycoside/aglycon within its isoflavone family: 2.0%
Crude diglycosidase; roasted soy flour, substrate concentration 30%, heat treatment of enzyme yes, reaction time 6 h
  Decomposition efficiency: ratio of each glycoside/aglycon within its isoflavone family: 50.1%
Crude diglycosidase; soymilk, substrate concentration 2%, heat treatment of enzyme no, reaction time 0 h
  Decomposition efficiency: ratio of each glycoside/aglycon within its isoflavone family: 54.5%
Crude diglycosidase; soymilk, substrate concentration 2%, heat treatment of enzyme no, reaction time 1 h
  Decomposition efficiency: ratio of each glycoside/aglycon within its isoflavone family: not detected
Crude diglycosidase; soymilk, substrate concentration 2%, heat treatment of enzyme no, reaction time 3 h
  Decomposition efficiency: ratio of each glycoside/aglycon within its isoflavone family: not detected
Crude diglycosidase; soymilk, substrate concentration 2%, heat treatment of enzyme no, reaction time 6 h
  Decomposition efficiency: ratio of each glycoside/aglycon within its isoflavone family: not detected
Crude diglycosidase; soymilk, substrate concentration 2%, heat treatment of enzyme yes, reaction time 6 h
  Decomposition efficiency: ratio of each glycoside/aglycon within its isoflavone family: 38.0%
Crude diglycosidase; soymilk, substrate concentration 5%, heat treatment of enzyme no, reaction time 0 h
  Decomposition efficiency: ratio of each glycoside/aglycon within its isoflavone family: 31.5%
Crude diglycosidase; soymilk, substrate concentration 5%, heat treatment of enzyme no, reaction time 1 h
  Decomposition efficiency: ratio of each glycoside/aglycon within its isoflavone family: not detected
Crude diglycosidase; soymilk, substrate concentration 5%, heat treatment of enzyme no, reaction time 3 h
  Decomposition efficiency: ratio of each glycoside/aglycon within its isoflavone family: not detected
Crude diglycosidase; soymilk, substrate concentration 5%, heat treatment of enzyme no, reaction time 6 h
  Decomposition efficiency: ratio of each glycoside/aglycon within its isoflavone family: not detected
Crude diglycosidase; soymilk, substrate concentration 5%, heat treatment of enzyme yes, reaction time 6 h
  Decomposition efficiency: ratio of each glycoside/aglycon within its isoflavone family: 37.9%
Crude diglycosidase; soymilk, substrate concentration 10%, heat treatment of enzyme no, reaction time 0 h
  Decomposition efficiency: ratio of each glycoside/aglycon within its isoflavone family: 32.9%
Crude diglycosidase; soymilk, substrate concentration 10%, heat treatment of enzyme no, reaction time 1 h
  Decomposition efficiency: ratio of each glycoside/aglycon within its isoflavone family: not detected
Crude diglycosidase; soymilk, substrate concentration 10%, heat treatment of enzyme no, reaction time 3 h
  Decomposition efficiency: ratio of each glycoside/aglycon within its isoflavone family: not detected
Crude diglycosidase; soymilk, substrate concentration 10%, heat treatment of enzyme no, reaction time 6 h
  Decomposition efficiency: ratio of each glycoside/aglycon within its isoflavone family: not detected
Crude diglycosidase; soymilk, substrate concentration 10%, heat treatment of enzyme yes, reaction time 6 h
  Decomposition efficiency: ratio of each glycoside/aglycon within its isoflavone family: 37.6%
Crude diglycosidase; soymilk, substrate concentration 20%, heat treatment of enzyme no, reaction time 0 h
  Decomposition efficiency: ratio of each glycoside/aglycon within its isoflavone family: 33.3%
Crude diglycosidase; soymilk, substrate concentration 20%, heat treatment of enzyme no, reaction time 1 h
  Decomposition efficiency: ratio of each glycoside/aglycon within its isoflavone family: not detected
Crude diglycosidase; soymilk, substrate concentration 20%, heat treatment of enzyme no, reaction time 3 h
  Decomposition efficiency: ratio of each glycoside/aglycon within its isoflavone family: not detected
Crude diglycosidase; soymilk, substrate concentration 20%, heat treatment of enzyme no, reaction time 6 h
  Decomposition efficiency: ratio of each glycoside/aglycon within its isoflavone family: not detected
Crude diglycosidase; soymilk, substrate concentration 20%, heat treatment of enzyme yes, reaction time 6 h
  Decomposition efficiency: ratio of each glycoside/aglycon within its isoflavone family: 38.6%
Crude diglycosidase; soymilk, substrate concentration 30%, heat treatment of enzyme no, reaction time 0 h
  Decomposition efficiency: ratio of each glycoside/aglycon within its isoflavone family: 33.6%
Crude diglycosidase; soymilk, substrate concentration 30%, heat treatment of enzyme no, reaction time 1 h
  Decomposition efficiency: ratio of each glycoside/aglycon within its isoflavone family: not detected
Crude diglycosidase; soymilk, substrate concentration 30%, heat treatment of enzyme no, reaction time 3 h
  Decomposition efficiency: ratio of each glycoside/aglycon within its isoflavone family: not detected
Crude diglycosidase; soymilk, substrate concentration 30%, heat treatment of enzyme no, reaction time 6 h
  Decomposition efficiency: ratio of each glycoside/aglycon within its isoflavone family: not detected
Crude diglycosidase; soymilk, substrate concentration 30%, heat treatment of enzyme yes, reaction time 6 h
  Decomposition efficiency: ratio of each glycoside/aglycon within its isoflavone family: 38.6%
